Experimental data published in ChEMBL document CHEMBL1135894, “Design and synthesis of a novel and potent series of inhibitors of cytosolic phospholipase A(2) based on a 1,3-disubstituted propan-2-one skeleton” (J Med Chem, 2002).

Tested on: HL-60
Assay: Inhibition of [3H]arachidonic acid production by stimulated HL60 cells.
Format: functional, cell-based
Conditions: Homo sapiens

| IC50 [µM] | Compound |
| --- | --- |
| 2.8 | CCCCCCCCCCOc1ccc(OCC(=O)COc2ccc(C(=O)O)cc2)cc1 |
| 29 | CCCCC/C=C\C/C=C\C/C=C\C/C=C\CCCC(=O)C(F)(F)F [ARACHIDONYL TRIFLUOROMETHYLKETONE] |
